Results from patent publication US7449488B2, “Pyrazolopyrimidines as protein kinase inhibitors” (priority 2002, dated 2008).

Molecular target: T1, CDK2 (cyclin A or E-dependent; cyclin-CDK2 complexes) (Homo sapiens, UniProt P24941)
T1 construct: made in house; host or cells: SF9 insect cells (baculovirus)
Test: CDK2 in vitro kinase assay (cyclin A or E-dependent), SPA
Assay type: biochemical

Cc1nc2c(Br)cnn2cc1CCO was tested, and the IC50 was 300 nM.
CCc1cn2ncc(Br)c2nc1C was tested, and the IC50 was 100 nM.
For OCC[C@@H]1CCCCN1c1ccn2ncc(Br)c2n1, the IC50 was 30 nM.
